This note sets out measurements from ChEMBL document CHEMBL1201862, “PubChem BioAssay data set” (2004).

Test [1] can be described thus: Luminescence Cell-Based Dose Confirmation HTS to Identify Inhibitors of Platelet Dense Granule Release. [Related pubchem assays: 1663 (Primary HTS), 1678 (Summary of Project)]. It counts as functional.
For test [2], the target named is Luciferin 4-monooxygenase (Photinus pyralis, UniProt P08659). Briefly: firefly luciferase enzyme inhibitors, dose response, biochemical, luminescence (AID 1891).
Chain of Luciferin 4-monooxygenase (P08659 whole entry): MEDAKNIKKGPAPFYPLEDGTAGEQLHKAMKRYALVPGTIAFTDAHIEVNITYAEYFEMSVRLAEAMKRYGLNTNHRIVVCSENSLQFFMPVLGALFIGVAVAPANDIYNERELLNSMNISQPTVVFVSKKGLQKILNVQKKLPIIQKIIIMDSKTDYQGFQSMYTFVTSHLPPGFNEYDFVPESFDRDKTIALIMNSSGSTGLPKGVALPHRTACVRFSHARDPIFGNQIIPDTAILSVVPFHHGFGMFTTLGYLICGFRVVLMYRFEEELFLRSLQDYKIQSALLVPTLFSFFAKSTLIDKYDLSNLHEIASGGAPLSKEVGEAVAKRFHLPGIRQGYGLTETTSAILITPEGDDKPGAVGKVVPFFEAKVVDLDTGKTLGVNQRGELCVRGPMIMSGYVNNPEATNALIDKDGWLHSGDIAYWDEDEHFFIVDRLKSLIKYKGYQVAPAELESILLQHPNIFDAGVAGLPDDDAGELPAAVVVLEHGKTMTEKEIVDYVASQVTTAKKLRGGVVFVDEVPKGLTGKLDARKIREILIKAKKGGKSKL
The target in test [3] is T1, Microphthalmia-associated transcription factor (Homo sapiens, UniProt O75030).
T1 sequence (O75030 whole entry): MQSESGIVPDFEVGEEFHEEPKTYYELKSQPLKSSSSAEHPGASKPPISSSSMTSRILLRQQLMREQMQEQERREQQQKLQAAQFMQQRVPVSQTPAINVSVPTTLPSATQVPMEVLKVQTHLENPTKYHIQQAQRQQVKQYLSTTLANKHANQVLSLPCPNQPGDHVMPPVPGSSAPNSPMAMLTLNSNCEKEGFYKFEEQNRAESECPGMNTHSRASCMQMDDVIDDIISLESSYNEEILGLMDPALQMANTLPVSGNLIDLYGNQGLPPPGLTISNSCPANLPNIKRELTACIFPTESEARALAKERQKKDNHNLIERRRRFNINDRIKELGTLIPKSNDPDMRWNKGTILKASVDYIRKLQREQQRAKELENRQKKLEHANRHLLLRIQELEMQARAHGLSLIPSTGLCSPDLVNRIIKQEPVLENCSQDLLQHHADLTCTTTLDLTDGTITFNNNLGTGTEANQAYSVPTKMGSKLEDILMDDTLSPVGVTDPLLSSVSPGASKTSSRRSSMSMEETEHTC
Briefly: TRPM1 promoter luciferase signal decrease, dose response, MITF inhibitor project, cell-based, SK-MEL-5, cherry-picked, set 3 (AID 493073).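 Note: SK-MEL-5 melanoma cells with luciferase driven by the MITF target TRPM1 promoter.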 It counts as functional.

In test [4] the target is Cytochrome P450 2C19 (Homo sapiens, UniProt P33261). Briefly: Cytochrome panel assay with activity outcomes. Panel member name: p450-cyp2c19 Compounds with AC50 equal or less than 10 uM are considered active. It counts as functional. Conditions: read-out: AC50.
Chain of Cytochrome P450 2C19 (P33261 whole entry): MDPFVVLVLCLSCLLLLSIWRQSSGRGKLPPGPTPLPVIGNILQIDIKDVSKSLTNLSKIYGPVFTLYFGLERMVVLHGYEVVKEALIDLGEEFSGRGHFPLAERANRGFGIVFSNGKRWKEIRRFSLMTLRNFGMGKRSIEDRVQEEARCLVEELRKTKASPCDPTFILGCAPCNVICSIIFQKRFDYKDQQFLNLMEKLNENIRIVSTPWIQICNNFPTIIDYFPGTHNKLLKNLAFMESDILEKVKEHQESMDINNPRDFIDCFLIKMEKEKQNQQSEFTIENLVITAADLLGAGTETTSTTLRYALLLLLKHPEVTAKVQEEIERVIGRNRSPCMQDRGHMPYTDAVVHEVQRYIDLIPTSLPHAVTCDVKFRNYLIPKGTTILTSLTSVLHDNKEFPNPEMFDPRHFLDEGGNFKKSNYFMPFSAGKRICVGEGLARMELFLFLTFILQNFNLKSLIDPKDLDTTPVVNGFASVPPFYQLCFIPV
For test [5], the system named is H4. Briefly: Luminescence Cell-Based Dose Response HTS to Identify Activators of 5'UTR Stem-Loop Driven Prion Protein mRNA Translation in H4 Neuroglioblastoma Cells. [Related pubchem assays: 1829 (Project Summary), 1814 (Primary HTS)]. Conditions: Homo sapiens. It counts as functional.
The nature of test [6]: Luminescence Cell-Based Dose Response HTS to Identify Activators of Luciferase Translation or Activity in H4 […] Cells. [Related pubchem assays: 1829 (Project Summary), 1814 (Primary HTS)]. It counts as functional.
Test [7] deals with Cytochrome P450 3A4 (Homo sapiens, UniProt P08684).
Chain of Cytochrome P450 3A4 (P08684 whole entry): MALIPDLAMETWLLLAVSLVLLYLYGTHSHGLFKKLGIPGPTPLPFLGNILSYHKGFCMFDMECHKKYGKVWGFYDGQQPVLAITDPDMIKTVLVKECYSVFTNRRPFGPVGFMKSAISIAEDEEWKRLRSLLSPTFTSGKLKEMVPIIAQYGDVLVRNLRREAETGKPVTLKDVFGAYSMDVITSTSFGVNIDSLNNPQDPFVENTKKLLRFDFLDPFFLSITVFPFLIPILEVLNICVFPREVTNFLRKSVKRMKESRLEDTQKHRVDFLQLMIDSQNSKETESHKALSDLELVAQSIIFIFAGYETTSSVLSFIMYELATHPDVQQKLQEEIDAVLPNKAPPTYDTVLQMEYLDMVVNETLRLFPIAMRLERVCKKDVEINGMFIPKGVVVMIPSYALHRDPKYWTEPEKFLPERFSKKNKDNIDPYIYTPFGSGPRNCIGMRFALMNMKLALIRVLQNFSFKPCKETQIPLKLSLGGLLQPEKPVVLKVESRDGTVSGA
In test [8] the target is T2, Zinc finger protein mex-5 (Caenorhabditis elegans, UniProt Q9XUB2).
T2 sequence (Q9XUB2 whole entry): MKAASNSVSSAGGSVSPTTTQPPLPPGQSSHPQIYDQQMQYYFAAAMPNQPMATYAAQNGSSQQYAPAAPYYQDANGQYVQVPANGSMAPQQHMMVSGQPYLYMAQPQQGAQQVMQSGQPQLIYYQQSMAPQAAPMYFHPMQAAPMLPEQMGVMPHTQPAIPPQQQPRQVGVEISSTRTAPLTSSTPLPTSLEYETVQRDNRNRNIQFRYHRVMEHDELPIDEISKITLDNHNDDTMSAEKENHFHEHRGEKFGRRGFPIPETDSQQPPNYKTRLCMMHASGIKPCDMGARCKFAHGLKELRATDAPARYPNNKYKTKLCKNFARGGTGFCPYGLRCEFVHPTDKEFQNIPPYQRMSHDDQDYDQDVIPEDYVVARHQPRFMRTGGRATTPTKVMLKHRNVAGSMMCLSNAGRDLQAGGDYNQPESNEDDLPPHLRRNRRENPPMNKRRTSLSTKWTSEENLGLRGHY
Briefly: MEX-5/TCR-2 RNA interaction inhibitors, dose response, biochemical, C. elegans, fluorescence polarization (AID 1960).

Test [9] has as its target T3, RNA-binding protein pos-1 (Caenorhabditis elegans, UniProt G5EF15).
T3 sequence (G5EF15 whole entry): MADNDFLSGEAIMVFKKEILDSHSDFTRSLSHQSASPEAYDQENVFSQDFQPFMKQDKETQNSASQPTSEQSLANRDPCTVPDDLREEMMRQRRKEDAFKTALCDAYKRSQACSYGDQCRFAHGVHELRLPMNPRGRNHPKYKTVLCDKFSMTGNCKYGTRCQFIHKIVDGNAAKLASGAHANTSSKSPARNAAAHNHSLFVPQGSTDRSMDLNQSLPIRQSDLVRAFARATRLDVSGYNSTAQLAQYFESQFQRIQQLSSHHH
Briefly: inhibitors of POS-1/mex-3 RNA binding, dose response, biochemical, fluorescence polarization (AID 1964).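 Note: purified POS-1 fused to maltose binding protein made in E. coli; potency of compounds blocking POS-1 binding to fluorescent RNA.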

The nature of test [10]: HEp-2 cell cytotoxicity, dose response, cytotoxicity control for RSV inhibitor project, HTS (AID 2410). It counts as functional. To be noted: human respiratory syncytial virus.
The target of test [11] is T4, Protein RecA (Mycobacterium tuberculosis, UniProt P9WHJ3).
T4 sequence (P9WHJ3 whole entry): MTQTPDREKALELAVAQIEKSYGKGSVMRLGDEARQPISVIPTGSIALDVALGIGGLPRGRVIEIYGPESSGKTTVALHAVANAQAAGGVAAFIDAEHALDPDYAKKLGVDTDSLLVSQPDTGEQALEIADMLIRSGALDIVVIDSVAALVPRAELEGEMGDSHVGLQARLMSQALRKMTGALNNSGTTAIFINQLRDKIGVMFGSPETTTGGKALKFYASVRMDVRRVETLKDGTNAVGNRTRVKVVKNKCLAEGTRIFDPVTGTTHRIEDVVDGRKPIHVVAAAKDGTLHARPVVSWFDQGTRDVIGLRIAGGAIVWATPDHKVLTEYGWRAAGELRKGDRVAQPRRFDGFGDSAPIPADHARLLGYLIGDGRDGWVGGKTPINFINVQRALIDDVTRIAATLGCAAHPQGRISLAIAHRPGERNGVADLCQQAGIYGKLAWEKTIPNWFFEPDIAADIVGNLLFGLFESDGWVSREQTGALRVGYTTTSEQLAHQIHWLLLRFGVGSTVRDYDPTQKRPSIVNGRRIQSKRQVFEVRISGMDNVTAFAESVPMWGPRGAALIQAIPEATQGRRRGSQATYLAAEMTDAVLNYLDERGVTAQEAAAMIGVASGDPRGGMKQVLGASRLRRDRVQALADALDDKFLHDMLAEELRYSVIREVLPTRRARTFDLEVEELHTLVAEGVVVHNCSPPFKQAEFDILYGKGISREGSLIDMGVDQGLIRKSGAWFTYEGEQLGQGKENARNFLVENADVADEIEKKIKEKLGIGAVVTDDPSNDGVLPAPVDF
Briefly: Fluorescence Cell-Free Homogeneous Dose Retest to Identify Inhibitors of RecA-Intein Splicing Activity. [Related pubchem assays (depositor defined):AID2097, AID2223, AID489010, AID492950]. It counts as functional.

The test system of test [12] is Streptococcus sp. 'group A'. Briefly: growth inhibition of control SK(-) GAS strain, dose response, counter-screen for streptokinase expression inhibitor project, luminescence, kanamycin, BacTiterGlo, confirmation (AID 1900). It counts as functional, organism-based.
The target in test [13] is T5, Streptokinase A (Streptococcus pyogenes serotype M1, UniProt P10520).
T5 sequence (P10520 whole entry): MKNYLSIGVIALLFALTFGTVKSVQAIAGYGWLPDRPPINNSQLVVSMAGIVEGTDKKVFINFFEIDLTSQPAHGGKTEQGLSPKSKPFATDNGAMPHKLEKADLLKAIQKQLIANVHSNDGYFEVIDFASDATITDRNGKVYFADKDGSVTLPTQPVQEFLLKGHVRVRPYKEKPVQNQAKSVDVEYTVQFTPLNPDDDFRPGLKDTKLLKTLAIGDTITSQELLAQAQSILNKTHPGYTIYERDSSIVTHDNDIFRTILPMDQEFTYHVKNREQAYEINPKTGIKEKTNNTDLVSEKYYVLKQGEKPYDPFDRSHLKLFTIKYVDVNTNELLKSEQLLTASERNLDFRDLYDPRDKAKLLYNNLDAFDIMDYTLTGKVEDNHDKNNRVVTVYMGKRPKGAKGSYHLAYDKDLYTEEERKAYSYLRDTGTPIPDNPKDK
Briefly: S. pyogenes streptokinase expression inhibitors, potency, dose response, plasminogen activation absorbance, OD405 (AID 1914).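 Note: secreted streptokinase activity via plasminogen activation per viability signal from cell pellet.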 It counts as functional, Streptococcus pyogenes M1 GAS.

The subject of test [14] is Streptococcus. Briefly: Group A Streptococcus viability loss, dose response, counter-screen for streptokinase expression inhibitor project, luminescence, BacTiterGlo (AID 1915).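 Note: potency for reduction of bacterial viability or growth.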 To be noted: read-out: EC50. It counts as functional, organism-based.
A short description of test [15]: P. falciparum Dd2 growth inhibitors, dose response, SYBR Green, cherry-picked samples (AID 1159567). It counts as functional, cell-based.
For test [16], the target named is Genome polyprotein (dengue virus type 2, UniProt P29990). Briefly: Dengue-2 NS5 methyltransferase inhibitors, primary screen, biochemical, confirmation dose response (AID 588689). It counts as functional.
Chain of Genome polyprotein (P29990 2492-3391 limits assumed): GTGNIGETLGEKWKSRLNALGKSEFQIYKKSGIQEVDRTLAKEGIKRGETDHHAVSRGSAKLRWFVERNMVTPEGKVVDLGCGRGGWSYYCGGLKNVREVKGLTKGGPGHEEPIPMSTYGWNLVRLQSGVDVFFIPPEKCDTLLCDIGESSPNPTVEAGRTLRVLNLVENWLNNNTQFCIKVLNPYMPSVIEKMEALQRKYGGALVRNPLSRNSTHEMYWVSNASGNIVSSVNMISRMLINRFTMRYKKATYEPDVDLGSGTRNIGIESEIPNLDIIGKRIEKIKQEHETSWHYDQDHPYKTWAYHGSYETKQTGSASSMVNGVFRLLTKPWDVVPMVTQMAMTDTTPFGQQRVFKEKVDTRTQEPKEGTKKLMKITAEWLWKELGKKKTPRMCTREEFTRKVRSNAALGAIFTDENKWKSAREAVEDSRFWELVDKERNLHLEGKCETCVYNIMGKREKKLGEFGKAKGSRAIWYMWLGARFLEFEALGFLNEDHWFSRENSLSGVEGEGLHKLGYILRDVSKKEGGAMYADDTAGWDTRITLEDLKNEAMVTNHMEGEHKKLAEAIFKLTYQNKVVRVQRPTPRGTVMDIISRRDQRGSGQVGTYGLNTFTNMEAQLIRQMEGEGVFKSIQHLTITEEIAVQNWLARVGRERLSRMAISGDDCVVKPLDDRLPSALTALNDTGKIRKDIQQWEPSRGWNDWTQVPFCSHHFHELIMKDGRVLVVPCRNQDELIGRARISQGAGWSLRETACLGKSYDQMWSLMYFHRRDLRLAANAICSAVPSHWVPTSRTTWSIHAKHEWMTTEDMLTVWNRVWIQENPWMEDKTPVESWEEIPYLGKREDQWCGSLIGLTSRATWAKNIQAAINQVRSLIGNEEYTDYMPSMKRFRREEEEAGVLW

Activity calls are given as the source filed them.

Turning to `CC1CCN(C(=O)C2CCN(CC(C)c3ccccc3)CC2)CC1` (stereo unspecified), the EC50 in test [1] and in test [2] was > 112 µM (not active) in each case.

As to `O=C(c1ccc([N+](=O)[O-])s1)N1CCCc2ccccc21`, the AC50 in test [3] was 11.2 µM (active).

With `O=C(Nc1ccc(Br)cc1)c1ccc(CSC2=NCCS2)cc1`, the AC50 in test [4] was 11.2 µM (inconclusive); in test [7], 3.55 µM (inconclusive). The EC50 in [5] was 99.7 µM (active); in test [6], 3.81 µM (active).

As to `Nc1cc(-c2nc3ncccc3o2)ccc1Cl`, the EC50 is > 120 µM (not active) in [5] and 4.25 µM (active) in [6].

In the case of `COc1cccc(NC(=O)C(=O)c2cn(CC(=O)N3CCOCC3)c3ccccc23)c1`, the EC50 in test [8] and in [9] was > 300 µM (not active) throughout.

As to `CCOC(=O)/C(C#N)=C/c1cc2ccccc2nc1N1CCCCC1`, the figures for the EC50 in test [8] and in test [9] were 104 µM (active) and > 300 µM (not active), respectively.

For `CN1C(=O)C(=Cc2ccccc2OS(=O)(=O)c2ccccc2)C(=O)N(C)C1=O`, the EC50 in [8] and in [9] was > 300 µM (not active) each time.

On to `O=C(C1CC(c2ccc(F)cc2)=NO1)N1CCCCC1` (stereo unspecified), for which the figures for the EC50 in test [5] and in [6] were 33.4 µM (active) and 5.56 µM (active), respectively.

Regarding `CC(=O)C1=C(C)NC(SCC(=O)c2ccc(Cl)cc2)=C(C#N)C1CC(C)C` (stereo unspecified), the CC50 in [10] was 23.4 µM (active).

Turning to `Cc1cc(C)n(Cc2ccc(F)cc2)c(=O)c1C#N`, the EC50 in test [1] is 15.7 µM (active); in test [2] it was > 112 µM (not active).

Turning to `COc1cccc(NC(=O)c2cccs2)c1`, the 50% effective concentration (EC50) in test [1] and in test [2] was > 112 µM (not active) each time.

As for `Cc1ccc(S(=O)(=O)N=C(N)Nc2nc(C)c3ccc(C)cc3n2)cc1`, the CC50 in test [10] was > 50 µM (active).

In the case of `Nc1c2c(nc3ccc(Br)cc13)N(Cc1ccccc1)CC2`, in [10], the CC50 was 9.17 µM (active).

As to `C=CCn1c(N)c(C(=O)Nc2cccc(C)c2)c2nc3ccccc3nc21`, the EC50 was 13.3 µM (active) in test [11], 2.97 µM (active) in test [12], > 150 µM (not active) in test [13] and 8.54 µM (active) in test [14]. Also, the CC50 in [10] was 11.4 µM (active).

Regarding `CCc1ccc(NC2=NC(=O)/C(=C/c3cc(OC)c(OC)c(OC)c3)S2)cc1`, in test [10], the CC50 was 21.2 µM (active).

For `Cc1ccccc1NC(=O)/C(C#N)=C\c1cc(C)n(-c2ccc(C(=O)O)cc2)c1C`, the concentration for a half-maximal effect (EC50) in [8] and in test [9] was > 300 µM (not active) each time.

As for `O=C1NC(=O)N(c2ccc(F)cc2)C(=O)/C1=C/Nc1ccccc1N1CCCC1`, the EC50 in test [8] was 103 µM (active); in [9] it was 76.7 µM (active).

As for `CCCCOC(=O)c1ccc(NC(=O)CN2C(=O)NC3(CCCCCC3)C2=O)cc1`, the CC50 in test [10] was 31.9 µM (active).

As to `CCN1CCN(C(=O)c2ccc3c(=O)n(Cc4ccccc4OC)c(=S)[nH]c3c2)CC1`, the EC50 in test [8] and in test [9] was > 300 µM (not active) throughout.

Regarding `O=C(/C=C/c1ccco1)NCCCN1CCN(CCCNC(=O)/C=C/c2ccco2)CC1`, the EC50 in test [1] and in test [2] was > 112 µM (not active) throughout.

For `Cc1nn(C)c(Cl)c1CN1CCN(C2CCCCC2)C(CCO)C1` (stereo unspecified), the EC50 in [1] and in test [2] was > 112 µM (not active) in each case.

Take `CCCN(C)C[C@H]1Oc2ncc(C#Cc3ccccc3OC)cc2C(=O)N([C@H](C)CO)C[C@H]1C`: in [15], the AC50 was 3.28 µM (active).

`O=C(CCc1nc(O)c2ccccc2n1)NCCN1C(=O)S/C(=C\c2ccccc2Cl)C1=O`: the CC50 in test [10] was 23.9 µM (active).

On to `CC(C)OP(=O)(OC(C)C)C1(NS(=O)(=O)c2ccc(Cl)cc2)C=C(Cl)C(=O)C(Cl)=C1`, for which the IC50 in [16] is 99.3 µM (active).

`COC(=O)C(C#N)c1nc2ccccc2nc1N1CCN(Cc2ccc3c(c2)OCO3)CC1` (stereo unspecified): the EC50 in [1] and in test [2] was > 112 µM (not active) each time.
